In patent US11203608B2, “Platinum-containing compounds, and related compositions and uses thereof” (Massachusetts Institute of Technology, priority 2019, dated 2021):

Columns and labels:
[1] = Solubility and stability in organic solvents (observed during NMR); format: physicochemical
Method: To a stirred solution of K2PtCl4 (41.5 mg, 0.100 mmol) in water (30 mL), a solution of 9 bis(trifluoroacetic acid) salt (77.0 mg, 0.100 mmol) in water (9 mL) was added in one portion. Red precipitate formed immediately. The reaction was stirred at room temperature for 24 h. To the same solution was added AgNO3 aq. solution (0.10 M, 4.0 mL). The reaction was stirred at room temperature for 24 h. To this mixture was then added K2C2O4 aq. solution (0.20 M, 0.50 mL). The reaction was stirred at room temperature for 24 h. The reaction mixture was lyophilized together with a small amount of C18-reversed phase silica gel. […] The multiplicity of some ^1H NMR signals were not determined due to overlap. […] Due to the relatively low concentration of 12 in […], only part of the ^13C NMR signals were detected through ^13C-^1H correlation experiments. The ^13C NMR signals of Conformer A detected by ^1H-^13C HSQC and ^1H-^13C HMBC spectroscopy: ^13C{^1H} NMR (101 MHz, DMSO-d6) δ 16.98, 31.68, 34.80, 37.89, 55.85, 56.35, 64.07, 65.27, 66.70, 68.15, 98.84, 118.56, 118.86, 134.84, 159.78. The ^13C NMR signals of Conformer B detected by ^1H-^13C HSQC and ^1H-^13C HMBC spectroscopy: ^13C{^1H} NMR (101 MHz, DMSO-d6) δ 17.24, 32.01, 36.73, 37.27, 56.13, 56.31, 63.56, 64.07, 68.53, 69.85, 99.05, 118.68, 118.84, 135.99, 160.62. ^195Pt NMR (86 MHz, DMSO-d6) δ−1989 (br). […]

[2] = tested on: A2780 human ovarian cancer cell line; experiment: Cell growth, resazurin assay, A2780; format: cell-based; settings: A2780, 72-h exposure
Method: (§1) Cells were cultured in 10 mL of Advanced DMEM/F12 (ADMEM/F12), supplemented with 5% FBS, 2 mM GlutaMAX, and 1% Penicillin-Streptomycin in 10 cm tissue culture plates. Cells were then plated into 96-well plates with about 2.5×10^3 cells per well. Cells were plated with 200 μL per well of ADMEM/F12 supplemented with 5% FBS, 2 mM GlutaMAX, and 1% Penicillin-Streptomycin. Cells were treated with dose responses of doxorubicin, oxaliplatin, or doxaliplatin upon plating. The cells were then cultured for 72 hours following drug treatment, and cell growth was measured by resazurin assay.

[3] = tested on: OVCAR8 human ovarian cancer cell line; experiment: Cell growth, resazurin assay, OVCAR8; format: cell-based; settings: 72-h exposure
Method: as §1

[4] = tested on: HT-29 human colorectal adenocarcinoma; experiment: Cell growth, resazurin assay, HT-29; format: cell-based; settings: 96-h exposure (table title); read-out: IC50 HT-29 (colon)
Method: as §1

Structure (SMILES): COc1cccc2c1C(=O)c1c(O)c3c(c(O)c1C2=O)CC(O)(C(=O)CO)CC3OC1CC(N)C(N)C(C)O1.O=C1[O][Pt][O]C1=O (centres unmarked) [DoxPt, Doxaliplatin]
- Solubility in DMF ([1]; DMF): low solubility
- Solubility in DMSO-d6 ([1]; DMSO-d6): relatively high solubility
- IC50 [2]: 16 nM
- IC90 [2]: 380 nM
- IC95 [2]: 680 nM
- IC50 [3]: 140 ± 10 nM
- IC80 [3]: 370 ± 20 nM
- IC50 [4]: 330 nM
